The record followed here is ChEMBL document CHEMBL1909046, “DrugMatrix in vitro pharmacology data”.

Assay [1] addresses T1, Alpha-1D adrenergic receptor (Homo sapiens, UniProt P25100).
T1 sequence (P25100 whole entry): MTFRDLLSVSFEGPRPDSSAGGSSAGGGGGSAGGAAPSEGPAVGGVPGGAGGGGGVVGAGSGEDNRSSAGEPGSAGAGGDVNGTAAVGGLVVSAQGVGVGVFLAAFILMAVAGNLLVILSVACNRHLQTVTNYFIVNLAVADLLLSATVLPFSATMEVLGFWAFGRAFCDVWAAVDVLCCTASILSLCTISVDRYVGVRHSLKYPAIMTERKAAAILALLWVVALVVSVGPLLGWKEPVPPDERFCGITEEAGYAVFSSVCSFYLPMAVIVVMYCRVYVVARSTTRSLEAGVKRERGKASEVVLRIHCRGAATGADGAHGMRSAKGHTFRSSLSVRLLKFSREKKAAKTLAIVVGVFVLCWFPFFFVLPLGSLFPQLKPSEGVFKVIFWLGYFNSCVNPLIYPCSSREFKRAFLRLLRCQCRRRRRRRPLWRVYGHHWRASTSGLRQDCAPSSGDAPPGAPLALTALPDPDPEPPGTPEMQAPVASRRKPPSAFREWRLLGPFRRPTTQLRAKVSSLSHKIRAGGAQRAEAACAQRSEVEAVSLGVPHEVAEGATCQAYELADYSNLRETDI
The format is cell membranes, HEK293, Membrane. As to conditions: hek293.

For assay [2], the target named is Sodium-dependent dopamine transporter (Homo sapiens, UniProt Q01959). Put plainly: DRUGMATRIX: Dopamine Transporter radioligand binding (ligand: [125I] RTI-55). The format is cell membranes, CHO-K1, Membrane. To be noted: Not Active = under 50% inhibition at 10 µM; for pIC50: read-out: IC50; for pKi: read-out: Ki.
A short description of assay [3]: DRUGMATRIX: GABAA, Chloride Channel, TBOB radioligand binding (ligand: [3H] TBOB). It counts as cell membranes, Rattus norvegicus, Wistar, Cerebral cortex, Membrane. As to conditions: Not Active = under 50% inhibition at 10 µM.
Assay [4] is described as follows: DRUGMATRIX: Glutamate, NMDA, Agonism radioligand binding (ligand: [3H] CGP-39653). The format is cell membranes, Rattus norvegicus, Wistar, Cerebral cortex, Membrane. As to conditions: Not Active = under 50% inhibition at 10 µM.
Another assay concerns the target Histamine H2 receptor (Homo sapiens, UniProt P25021). The format is cell membranes, CHO-K1, Membrane. To be noted: cho-k1. Also: in other assays of this panel Not Active means under 50% inhibition at 10 µM.
Assay [5] has as its target T2, Nitric oxide synthase, inducible (Mus musculus, UniProt P29477).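 Also: inhibition of iNOS enzyme activity measured with L-arginine as substrate; in other assays of this panel Not Active means under 50% inhibition at 10 µM.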
T2 sequence (P29477 whole entry): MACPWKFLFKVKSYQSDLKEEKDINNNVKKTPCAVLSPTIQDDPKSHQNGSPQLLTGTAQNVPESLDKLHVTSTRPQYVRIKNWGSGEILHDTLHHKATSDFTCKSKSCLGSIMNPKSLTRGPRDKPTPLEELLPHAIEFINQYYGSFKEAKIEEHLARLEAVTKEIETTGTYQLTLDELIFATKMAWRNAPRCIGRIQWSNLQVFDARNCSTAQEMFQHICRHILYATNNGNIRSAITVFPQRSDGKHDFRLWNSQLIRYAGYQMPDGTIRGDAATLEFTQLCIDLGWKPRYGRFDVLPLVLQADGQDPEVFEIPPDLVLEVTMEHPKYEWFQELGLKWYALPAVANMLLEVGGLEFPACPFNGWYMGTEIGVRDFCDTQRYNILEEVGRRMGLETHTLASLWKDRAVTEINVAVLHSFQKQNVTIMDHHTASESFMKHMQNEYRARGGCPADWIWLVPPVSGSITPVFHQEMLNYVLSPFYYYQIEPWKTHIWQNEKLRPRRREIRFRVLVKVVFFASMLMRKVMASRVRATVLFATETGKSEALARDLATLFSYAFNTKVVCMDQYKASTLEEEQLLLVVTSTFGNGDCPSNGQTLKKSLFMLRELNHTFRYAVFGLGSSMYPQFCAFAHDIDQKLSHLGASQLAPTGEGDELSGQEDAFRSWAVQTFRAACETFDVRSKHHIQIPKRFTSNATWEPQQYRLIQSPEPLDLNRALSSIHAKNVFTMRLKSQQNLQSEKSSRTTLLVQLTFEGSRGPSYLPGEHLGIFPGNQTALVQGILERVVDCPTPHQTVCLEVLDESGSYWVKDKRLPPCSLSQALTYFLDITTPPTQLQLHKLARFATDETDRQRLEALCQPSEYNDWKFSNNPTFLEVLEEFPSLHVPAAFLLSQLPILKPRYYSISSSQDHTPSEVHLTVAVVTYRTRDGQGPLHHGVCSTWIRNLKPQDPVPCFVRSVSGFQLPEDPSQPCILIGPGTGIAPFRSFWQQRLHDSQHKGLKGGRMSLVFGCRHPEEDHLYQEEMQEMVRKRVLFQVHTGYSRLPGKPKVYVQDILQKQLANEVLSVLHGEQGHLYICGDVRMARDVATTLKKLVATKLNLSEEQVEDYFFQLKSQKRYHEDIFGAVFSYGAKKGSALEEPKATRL
Also on record: species or system Escherichia coli.

pIC50, pKi: −log10 of the molar value.

Sequence of Sodium-dependent dopamine transporter (Q01959 whole entry): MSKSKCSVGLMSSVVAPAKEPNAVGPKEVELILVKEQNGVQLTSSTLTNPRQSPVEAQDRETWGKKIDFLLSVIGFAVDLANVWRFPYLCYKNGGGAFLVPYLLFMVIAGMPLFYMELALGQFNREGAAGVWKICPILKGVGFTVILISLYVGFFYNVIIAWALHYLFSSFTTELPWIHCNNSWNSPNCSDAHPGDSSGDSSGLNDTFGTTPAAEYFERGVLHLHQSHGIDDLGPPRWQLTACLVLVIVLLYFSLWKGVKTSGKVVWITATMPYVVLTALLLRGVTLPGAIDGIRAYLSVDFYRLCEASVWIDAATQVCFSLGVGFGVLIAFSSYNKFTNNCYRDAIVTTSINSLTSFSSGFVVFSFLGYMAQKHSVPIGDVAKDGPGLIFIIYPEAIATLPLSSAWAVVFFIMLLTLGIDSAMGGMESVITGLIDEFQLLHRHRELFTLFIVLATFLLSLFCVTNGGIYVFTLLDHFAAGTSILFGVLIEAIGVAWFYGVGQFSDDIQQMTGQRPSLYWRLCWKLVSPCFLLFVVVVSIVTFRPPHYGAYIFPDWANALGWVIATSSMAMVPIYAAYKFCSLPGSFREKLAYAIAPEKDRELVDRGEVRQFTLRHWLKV
Sequence of Histamine H2 receptor (P25021 whole entry): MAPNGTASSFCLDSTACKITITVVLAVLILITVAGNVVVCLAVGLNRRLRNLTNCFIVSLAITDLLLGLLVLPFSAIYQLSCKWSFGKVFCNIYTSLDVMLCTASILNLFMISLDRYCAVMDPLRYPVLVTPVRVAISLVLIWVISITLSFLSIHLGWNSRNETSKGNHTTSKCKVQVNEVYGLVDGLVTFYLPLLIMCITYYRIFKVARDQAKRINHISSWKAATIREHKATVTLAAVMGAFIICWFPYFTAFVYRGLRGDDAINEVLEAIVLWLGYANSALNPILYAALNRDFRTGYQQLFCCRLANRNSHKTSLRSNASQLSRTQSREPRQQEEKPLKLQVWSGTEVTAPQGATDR

`COc1cc([C@@H]2c3cc4c(cc3[C@H](O)[C@H]3COC(=O)[C@H]23)OCO4)cc(OC)c1OC` [PODOFILOX]: the IC50 result (in assay [1]; in assay [2] (cho-k1); in assay [3]; in assay [4]; on Histamine H2 receptor; in assay [5]) was “Not Active” in each case. The Ki entry in assay [3] and in assay [4] was “Not Active” throughout.
Take `C[C@H]1C[C@H]2[C@@H]3CCC4=CC(=O)C=C[C@]4(C)[C@@]3(F)[C@@H](O)C[C@]2(C)[C@@]1(O)C(=O)CO` [BETAMETHASONE]: the IC50 result (in assay [1]; in assay [2] (cho-k1); in assay [3]; in assay [4]; against Histamine H2 receptor; in assay [5]) was “Not Active” throughout. Further, the Ki result in assay [3] and in assay [4] was “Not Active” throughout.
Regarding CARBOXYMETHYLCELLULOSE, the IC50 entry (in assay [1]; in assay [2] (cho-k1); in assay [3]; in assay [4]; against Histamine H2 receptor; in assay [5]) was “Not Active” each time. Besides, the Ki result (in assay [1]; in assay [2] (cho-k1); in assay [3]; in assay [4]; on Histamine H2 receptor; in assay [5]) was “Not Active” in each case.
For the compound `NC(=O)CN1CCCC1=O`, the IC50 entry (in assay [1]; in assay [2] (cho-k1); in assay [3]; in assay [4]; on Histamine H2 receptor; in assay [5]) was “Not Active” each time. The Ki entry in assay [3] and in assay [4] was “Not Active” each time.
In general, pIC50 refers to −log10 of the IC50, conventionally taken in molar units. What is called pKi is −log10 of the Ki, conventionally taken in molar units. In the case of `CC(N)Cc1c[nH]c2ccc(OCc3cccs3)cc12` (configuration not stated) [BW-723C86], the IC50 entry (in assay [1]; in assay [3]; in assay [4]; on Histamine H2 receptor; in assay [5]) was “Not Active” throughout. The negative-log IC50 (pIC50) in assay [2] was 5.57. In addition, the negative logarithm of the Ki (pKi) in assay [2] is 5.67. Besides, the Ki entry in assay [3] and in assay [4] was “Not Active” each time.
On to `c1ccc2c(c1)Nc1ccccc1S2` [PHENOTHIAZINE], for which the IC50 result (in assay [1]; in assay [3]; in assay [4]; at Histamine H2 receptor; in assay [5]) was “Not Active” in each case. Moreover, the pIC50 in assay [2] is 4.73. The pKi in assay [2] is 4.83. In addition, the Ki result in assay [3] and in assay [4] was “Not Active” each time.
In the case of `ClC1=C(Cl)[C@]2(Cl)[C@@H]3[C@@H]4C[C@@H]([C@H]5O[C@@H]45)[C@@H]3[C@@]1(Cl)C2(Cl)Cl` [DIELDRIN], the IC50 result (in assay [1]; in assay [2] (cho-k1); in assay [4]; against Histamine H2 receptor; in assay [5]) was “Not Active” in each case. In addition, in assay [3] (read-out: IC50), the negative-log IC50 (pIC50) was 6.47. Moreover, the pKi in assay [3] (read-out: Ki) was 6.52. Also, the Ki entry in assay [4] is “Not Active”.
On to `CC(C)(c1ccc(O)cc1)c1ccc(O)cc1` [BISPHENOL A], for which the IC50 entry (in assay [1]; in assay [3]; in assay [4]; against Histamine H2 receptor; in assay [5]) was “Not Active” in each case. Further, the pIC50 in assay [2] is 4.72. Also, the pKi in assay [2] was 4.82. The Ki result in assay [3] and in assay [4] was “Not Active” throughout.
With `CN(Cc1cc(Br)cc(Br)c1N)C1CCCCC1` [BROMHEXINE], the IC50 entry (in assay [1]; in assay [2] (cho-k1); in assay [3]; in assay [4]; against Histamine H2 receptor; in assay [5]) was “Not Active” each time. For the same compound, the Ki result in assay [3] and in assay [4] was “Not Active” each time.
For the compound `c1ccc(Cn2ccnc2)cc1`, the IC50 result (in assay [1]; in assay [2] (cho-k1); in assay [3]; in assay [4]; on Histamine H2 receptor; in assay [5]) was “Not Active” in each case. The Ki entry in assay [3] and in assay [4] was “Not Active” throughout.
